Measurements as given in patent publication US8415342B2, “Besifloxacin ophthalmic composition for the treatment or control of infection” (Bausch & Lomb Incorporated, priority 2008, dated 2013).
Converted amounts (≈) assume the structure as drawn. Read-outs that look alike come from different tables or passages of the source.

Tests used:
Assay type in all cases: cell-based
Klebsiella oxytoca = test: MIC, CLSI broth microdilution, clinical isolates; conditions: Klebsiella oxytoca (N = 50)
Morganella morganii = test: MIC, CLSI broth microdilution, clinical isolates; conditions: Morganella morganii (N = 51)
Citrobacter koseri = test: MIC, CLSI broth microdilution, clinical isolates; conditions: Citrobacter koseri (N = 100)
Anaerobic Bacteria = test: MIC against anaerobic bacteria (Table 7); conditions: for % S (percent of susceptible isolates): CLSI breakpoints
[1] = tested on: Staphylococcus lugdunensis; test: MIC, CLSI broth microdilution, clinical isolates; conditions: Staphylococcus lugdunensis (N = 15)
Staphylococcus warneri = test: MIC, CLSI broth microdilution, clinical isolates; conditions: Staphylococcus warneri (N = 50)
[2] = tested on: Staphylococcus saprophyticus; test: MIC, CLSI broth microdilution, clinical isolates; conditions: Staphylococcus saprophyticus (N = 101)
[3] = tested on: Staphylococcus epidermidis; test: MIC, CLSI broth microdilution, clinical isolates; conditions: for MIC50: Staphylococcus epidermidis
Staphylococcus aureus = test: MIC, CLSI broth microdilution, clinical isolates; conditions: for MIC50 / MIC90: Staphylococcus aureus
[4] = tested on: Staphylococcus haemolyticus; test: MIC, CLSI broth microdilution, clinical isolates; conditions: Staphylococcus haemolyticus (N = 101)
Moraxella catarrhalis = test: MIC, CLSI broth microdilution, clinical isolates; conditions: Moraxella catarrhalis (N = 101)
Staphylococcus hominis = test: MIC, CLSI broth microdilution, clinical isolates; conditions: Staphylococcus hominis (N = 50)
[5] = tested on: Lancefield group C, F, G streptococci; test: MIC, CLSI broth microdilution, clinical isolates; conditions: G streptococci (N = 50)
Streptococcus pyogenes = test: MIC, CLSI broth microdilution, clinical isolates; conditions: Streptococcus pyogenes (N = 101)
Streptococcus agalactiae = test: MIC, CLSI broth microdilution, clinical isolates; conditions: Streptococcus agalactiae (N = 100)
Streptococcus pneumoniae = test: MIC, CLSI broth microdilution, clinical isolates
Viridans streptococci = test: MIC, CLSI broth microdilution, clinical isolates; conditions: Viridans streptococci (N = 156)
[6] = Bacteroides fragilis, Bacteroides fragilis (N = 20), read-out: MIC50
[7] = Bacteroides fragilis, Bacteroides fragilis (N = 20), read-out: MIC90
[8] = Clostridium perfringens (N = 21)
[9] = Clostridium perfringens, Clostridium perfringens (N = 21)
[10] = Fusobacterium spp. (N = 21), read-out: MIC50
[11] = Fusobacterium spp. (N = 21), read-out: MIC90
[12] = Propionibacterium acnes (N = 21)
[13] = Staphylococcus epidermidis (CNS, N = 6)
[14] = Staphylococcus epidermidis (CS, N = 9)
[15] = Staphylococcus epidermidis (MRSE, N = 9)
[16] = Staphylococcus epidermidis (MSSE, N = 6)
[17] = Staphylococcus epidermidis (all phenotypes, N = 15)
[18] = Staphylococcus aureus (CNS, N = 16)
[19] = Staphylococcus aureus (CS, N = 14)
[20] = Staphylococcus aureus (MSSA, N = 19)
[21] = Staphylococcus aureus (all phenotypes, N = 30)
[22] = MRSA, Staphylococcus aureus (MRSA, N = 11)
[23] = MSSA, Staphylococcus aureus (MSSA, N = 19)
[24] = Streptococcus pneumoniae (PISP, N = 2)
[25] = Streptococcus pneumoniae (PSSP, N = 31)
[26] = Streptococcus pneumoniae (all phenotypes, N = 35)

With `CC(C)(O/N=C(\C(=O)N[C@@H]1C(=O)N2C(C(=O)[O-])=C(C[n+]3ccccc3)CS[C@H]12)c1csc(N)n1)C(=O)O` [Ceftazidime] the “% S” value (Klebsiella oxytoca) was 100.0%, the MIC50 (Klebsiella oxytoca) was 0.12 µg/mL (≈ 0.22 µM) and the MIC90 (Klebsiella oxytoca) was 0.5 µg/mL (≈ 0.915 µM). For the same compound, the “MIC Range” value (Klebsiella oxytoca) was 0.03 to 1 µg/mL, the “% S” value (Morganella morganii) was 82.4% and the MIC50 (Morganella morganii) was 0.12 µg/mL (≈ 0.22 µM). For the same compound, the MIC90 (Morganella morganii) was 16 µg/mL (≈ 29.3 µM), the “% S” value (Citrobacter koseri) was 100.0% and the MIC50 (Citrobacter koseri) was 0.12 µg/mL (≈ 0.22 µM). The MIC90 (Citrobacter koseri) was 0.5 µg/mL (≈ 0.915 µM) and the “MIC Range” value (Citrobacter koseri) was 0.06 to 4 µg/mL.
In the case of `CCC[C@@H]1C[C@@H](C(=O)N[C@@H]([C@H]2O[C@H](SC)[C@H](O)[C@@H](O)[C@H]2O)[C@H](C)Cl)N(C)C1` [Clindamycin], the MIC50 (Anaerobic Bacteria) is reported as no more than 0.03 µg/mL, the MIC90 (Anaerobic Bacteria) is reported as greater than 8 µg/mL and the “% S (percent of susceptible isolates)” value (Anaerobic Bacteria; Bacteroides fragilis (N = 20)) is reported as 65.0%. For the same compound, the MIC50 (Anaerobic Bacteria; [6]) was 2 µg/mL (≈ 4.71 µM), the MIC90 (Anaerobic Bacteria; [7]) was greater than 8 µg/mL and the “MIC Range” value (Anaerobic Bacteria; [8]) was 0.06 to 4 µg/mL. The “% S (percent of susceptible isolates)” value (Anaerobic Bacteria; [8]) was 85.7%, the MIC50 (Anaerobic Bacteria; [9]) was 2 µg/mL (≈ 4.71 µM) and the MIC90 (Anaerobic Bacteria; [9]) was 4 µg/mL (≈ 9.41 µM). For the same compound, the MIC50 (Anaerobic Bacteria; Cutibacterium acnes) was 0.06 µg/mL (≈ 0.141 µM), the MIC90 (Anaerobic Bacteria; Cutibacterium acnes) was 0.12 µg/mL (≈ 0.282 µM) and the “MIC Range” value (Anaerobic Bacteria; Fusobacterium spp. (N = 21)) was 0.06 to 8 µg/mL. The “% S (percent of susceptible isolates)” value (Anaerobic Bacteria; Fusobacterium spp. (N = 21)) was 95.2%, the MIC50 (Anaerobic Bacteria; [10]) was 0.06 µg/mL (≈ 0.141 µM) and the MIC90 (Anaerobic Bacteria; [11]) was 2 µg/mL (≈ 4.71 µM). For the same compound, the “% S (percent of susceptible isolates)” value (Anaerobic Bacteria; Prevotella spp. (N = 20)) was 85.0%, the “MIC Range” value (Anaerobic Bacteria; [12]) was “≦0.03-2 μg/mL” and the “% S (percent of susceptible isolates)” value (Anaerobic Bacteria; [12]) was 100.0%.
`Cc1ncc([N+](=O)[O-])n1CCO` [Metronidazole] was tested, and the MIC50 (Anaerobic Bacteria) was 4 µg/mL (≈ 23.4 µM), the MIC90 (Anaerobic Bacteria) was 4 µg/mL (≈ 23.4 µM) and the “MIC Range” value (Anaerobic Bacteria; Bacteroides fragilis (N = 20)) was 2-2 μg/mL. For the same compound, the “% S (percent of susceptible isolates)” value (Anaerobic Bacteria; Bacteroides fragilis (N = 20)) was 100.0%, the MIC50 (Anaerobic Bacteria; [6]) was 2 µg/mL (≈ 11.7 µM) and the MIC90 (Anaerobic Bacteria; [7]) was 2 µg/mL (≈ 11.7 µM). For the same compound, the “MIC Range” value (Anaerobic Bacteria; [8]) was 1 to 4 µg/mL, the “% S (percent of susceptible isolates)” value (Anaerobic Bacteria; [8]) was 100.0% and the MIC50 (Anaerobic Bacteria; [9]) was 2 µg/mL (≈ 11.7 µM). The MIC90 (Anaerobic Bacteria; [9]) was 4 µg/mL (≈ 23.4 µM), the MIC50 (Anaerobic Bacteria; Cutibacterium acnes) was greater than 16 µg/mL and the MIC90 (Anaerobic Bacteria; Cutibacterium acnes) was greater than 16 µg/mL. The “MIC Range” value (Anaerobic Bacteria; Fusobacterium spp. (N = 21)) was “≦0.12-2 μg/mL”, the “% S (percent of susceptible isolates)” value (Anaerobic Bacteria; Fusobacterium spp. (N = 21)) was 100.0% and the MIC50 (Anaerobic Bacteria; [10]) was 0.25 µg/mL (≈ 1.46 µM). For the same compound, the MIC90 (Anaerobic Bacteria; [11]) was 1 µg/mL (≈ 5.84 µM), the “MIC Range” value (Anaerobic Bacteria; Prevotella spp. (N = 20)) was 0.25 to 8 µg/mL and the “% S (percent of susceptible isolates)” value (Anaerobic Bacteria; Prevotella spp. (N = 20)) was 100.0%. The “% S (percent of susceptible isolates)” value (Anaerobic Bacteria; [12]) was 0.0%.
With `Cc1onc(-c2ccccc2)c1C(=O)N[C@@H]1C(=O)N2[C@@H]1SC(C)(C)[C@@H]2C(=O)O` [Oxacillin] the “% S” value [1] was 60.0%, the MIC50 [1] was 0.5 µg/mL (≈ 1.25 µM) and the MIC90 [1] was greater than 8 µg/mL. For the same compound, the “% S” value (Staphylococcus warneri) was 46.0%, the MIC50 (Staphylococcus warneri) was 0.5 µg/mL (≈ 1.25 µM) and the MIC90 (Staphylococcus warneri) was greater than 8 µg/mL. The “% S” value [2] was 9.9%, the MIC50 [2] was 0.5 µg/mL (≈ 1.25 µM) and the MIC90 [2] was 1 µg/mL (≈ 2.49 µM). The “% S” value [3, 13] was 50.0%, the “MIC Range” value [3, 13] was 0.12 to 4 µg/mL and the “% S” value [3, 14] was 55.6%. For the same compound, the “MIC Range” value [3, 14] was “≦0.06-2 μg/mL”, the “% S” value [3, 15] was 0.0% and the “MIC Range” value [3, 15] was 1 to 4 µg/mL. For the same compound, the “% S” value [3, 16] was 100.0%, the “MIC Range” value [3, 16] was “≦0.06-0.12 μg/mL” and the “% S” value [3, 17] was 40.0%. The MIC90 [3, 17] was 2 µg/mL (≈ 4.98 µM), the “MIC Range” value [3, 17] was “≦0.06-4 μg/mL” and the MIC50 ([3]; MRSE, Staphylococcus epidermidis (MRSE, N = 9)) was 1 µg/mL (≈ 2.49 µM). It also gave an MIC50 [3, 13] of 1 µg/mL (≈ 2.49 µM), an MIC50 [3, 14] of 0.12 µg/mL (≈ 0.299 µM) and an MIC50 [3, 16] of no more than 0.06 µg/mL. The MIC50 [3, 17] was 1 µg/mL (≈ 2.49 µM), the “% S” value (Staphylococcus aureus; [18]) was 50.0% and the “% S” value (Staphylococcus aureus; [19]) was 78.6%. For the same compound, the “% S” value (Staphylococcus aureus; Staphylococcus aureus (MRSA, N = 11)) was 0.0%, the “% S” value (Staphylococcus aureus; [20]) was 100.0% and the “MIC Range” value (Staphylococcus aureus; [20]) was 0.12 to 0.5 µg/mL. For the same compound, the “% S” value (Staphylococcus aureus; [21]) was 63.3%, the MIC50 (Staphylococcus aureus; [22]) was greater than 8 µg/mL and the MIC90 (Staphylococcus aureus; [22]) was greater than 8 µg/mL. It also gave an MIC50 (Staphylococcus aureus; [23]) of 0.25 µg/mL (≈ 0.623 µM), an MIC90 (Staphylococcus aureus; [23]) of 0.5 µg/mL (≈ 1.25 µM) and an MIC50 (Staphylococcus aureus; [18]) of 0.5 µg/mL (≈ 1.25 µM). For the same compound, the MIC90 (Staphylococcus aureus; [18]) was greater than 8 µg/mL, the MIC50 (Staphylococcus aureus; [19]) was 0.25 µg/mL (≈ 0.623 µM) and the MIC90 (Staphylococcus aureus; [19]) was greater than 8 µg/mL. The MIC50 (Staphylococcus aureus; [21]) was 0.25 µg/mL (≈ 0.623 µM), the MIC90 (Staphylococcus aureus; [21]) was greater than 8 µg/mL and the “% S” value [4] was 31.7%. The MIC50 [4] was greater than 8 µg/mL, the MIC90 [4] was greater than 8 µg/mL and the MIC50 (Moraxella catarrhalis) was 4 µg/mL (≈ 9.96 µM). For the same compound, the MIC90 (Moraxella catarrhalis) was 8 µg/mL (≈ 19.9 µM), the “% S” value (Staphylococcus hominis) was 16.0% and the MIC50 (Staphylococcus hominis) was greater than 8 µg/mL. For the same compound, the MIC90 (Staphylococcus hominis) was greater than 8 µg/mL.
In the case of Penicillin, the “% S” value [5] is reported as 100.0%, the MIC50 [5] is reported as “≦0.015 μg/mL” and the MIC90 [5] is reported as 0.06 µg/mL. For the same compound, the “MIC Range” value [5] was “≦0.015-0.06 μg/mL”, the “% S” value (Streptococcus pyogenes) was 100.0% and the MIC50 (Streptococcus pyogenes) was “≦0.015 μg/mL”. For the same compound, the MIC90 (Streptococcus pyogenes) was “≦0.015 μg/mL”, the “MIC Range” value (Streptococcus pyogenes) was “≦0.015-0.06 μg/mL” and the “% S” value (Streptococcus agalactiae) was 100.0%. The MIC50 (Streptococcus agalactiae) was 0.03 µg/mL, the MIC90 (Streptococcus agalactiae) was 0.06 µg/mL and the “MIC Range” value (Streptococcus agalactiae) was “≦0.015-0.06 μg/mL”. The “% S” value (Streptococcus pneumoniae; [24]) was 0.0%, the “MIC Range” value (Streptococcus pneumoniae; [24]) was 4-4 μg/mL and the “% S” value (Streptococcus pneumoniae; Streptococcus pneumoniae (PRSP, N = 2)) was 0.0%. The “% S” value (Streptococcus pneumoniae; [25]) was 100.0%, the MIC50 (Streptococcus pneumoniae; [25]) was “≦0.015 μg/mL” and the MIC90 (Streptococcus pneumoniae; [25]) was 0.25 µg/mL. For the same compound, the “MIC Range” value (Streptococcus pneumoniae; [25]) was “≦0.015-0.5 μg/mL”, the “% S” value (Streptococcus pneumoniae; [26]) was 88.6% and the MIC50 (Streptococcus pneumoniae; [26]) was “≦0.015 μg/mL”. For the same compound, the MIC90 (Streptococcus pneumoniae; [26]) was 4 µg/mL, the “% S” value (Viridans streptococci) was 76.3% and the MIC50 (Viridans streptococci) was 0.06 µg/mL. The MIC90 (Viridans streptococci) was 1 µg/mL.
